Source: patent US20210315886A1, “IMIDAZOTETRAZINE COMPOUNDS” (The Board of Trustees of the University of Illinois, priority 2018, published 2021)
“Also recorded” adds a separate entry of the source. Where two headings read alike, the source gives them in different places.

How the values were obtained:
[1] = test system: panel of human GBM cell lines; test: Anticancer activity against panel of human GBM cell lines; assay type: cell-based; conditions: for activity relative to TMZ in MGMT-deficient cell lines: MGMT-deficient U87 and D54 cell lines; for anticancer activity in cell culture: across all cell lines / in culture; for IC50: Homo sapiens
Experimental: Anticancer activity of C8 substituted imidazotetrazines. With a suite of imidazotetrazines in hand, each compound was evaluated against a panel of human GBM cell lines (Table 1a, Table 1b).

[2] = Mouse liver microsome stability assay; assay type: in vitro ADME; conditions: for stability to mouse liver microsomes: 2 hours
Experimental: Mouse Liver Microsome Stability Assay. A mixture of PBS (pH 7.4), NADPH regenerating system solution A (Corning Life Sciences), and NADPH regenerating system solution B (Corning Life Sciences) was incubated at 37° C. in a shaking incubator for 5 min. Next, compound was added in DMSO (final concentration 50 μM, 0.5% DMSO) before ice-cold mouse liver microsomes (Thermo Fisher, male CD-1 mice, pooled) were added (final protein concentration of 1 mg/mL). An aliquot was immediately removed, quenched with an equal volume of 100 μM internal standard and 0.5% hydrochloric acid in ice-cold acetonitrile, and centrifuged at 13,000 rcf for 3 min. The supernatant was diluted 1:5 in ddH2O and analyzed by LC-MS. The reactions were incubated at 37° C. in a shaking incubator for 2 h. A second aliquot was removed, quenched and diluted as before and analyzed by LC-MS. The ratio of the areas of analyte: internal standard at 2 hours was compared to the ratio at t0 to determine the percentage of compound remaining. Analysis was performed on an Agilent 6230 LC/MS TOF system with a 1.8 μm, 2.1×50 mm Agilent ZORBAX Eclipse Plus C18 column.

[3] = Assessment of hematological toxicity; assay type: in vivo; conditions: mice, single IV dose 125 mg/kg, blood counts after 7 days
Experimental: Assessment of hematological toxicity. […] Both lymphocyte (FIG. 3b) and neutrophil (FIG. 8a) concentrations were decreased in TMZ-treated mice. […] Total WBC, lymphocyte, and neutrophil counts for mice treated with these compounds were equivalent to those of control mice.
Assessment of Hematological Toxicity. Male CD-1 IGS mice (n=4 mice/group) were administered a single dose of 125 mg/kg compound intravenously. Imidazotetrazines were formulated with SBEβCD in sterile water immediately prior to injection. Seven days post-treatment, mice were humanely sacrificed and whole blood was collected for assessment of total white blood cells, lymphocytes, neutrophils, platelets, and red blood cells.

[4] = cited from earlier work
[5] = test system: GBM Br23c oncospheres intracranially implanted; test: Intracranial mouse model of GBM (Br23c oncospheres); assay type: in vivo; conditions: for increase of median survival over TMZ: equimolar to 15 mg/kg TMZ, once-per-day, 5×/week for 7 weeks
Excerpt: FIG. 5. Evaluation of imidazotetrazines in intracranial mouse models of GBM. GBM Br23c oncospheres were intracranially implanted into female athymic nude mice. Treatment was started 5 days post implantation. […] Compounds were formulated in 10% PEG in PBS immediately prior to each treatment. Number of mice per treatment cohort ≥5. Survival curves were compared using log-rank test.
in vivo Efficacy Models. Human GBM Br23c stem-like neurosphere cells were intracranially implanted in female athymic nude mice (150,000 cells/mouse). […] Mice were observed daily for any signs of deterioration, neurotoxicity, or movement disorders. They were inspected for signs of pain and distress, as in accordance with the Johns Hopkins Animal Care and Use Guidelines.

T98G cells = test: Cytotoxicity in T98G cells with or without O6BG pre-treatment; assay type: cell-based, human
Experimental: FIG. 4. Imidazotetrazines were added to T98G cells with or without 3 h pre-treatment of O6BG (100 μM). IC50 values after 7-day incubation and fold changes between (+/−) O6BG treatments are reported. […] Error is SEM, n≥3. Statistical significance was determined by using a two-sample Student's t-test (two-tailed test, assuming equal variance).
After 8 hours of incubation with compound, the genomic DNA was isolated, quantified, and hydrolyzed to its constituent deoxyribonucleosides, which were quantitated via LC-MS/MS analysis. […] O6BG is a pseudosubstrate for MGMT that quenches cellular stores of the enzyme, leading to the persistence of O^6-methylguanine DNA adducts.

[6] = Hydrolytic stability in buffered saline (HPLC assay); assay type: physicochemical; conditions: aqueous solution, PBS at pH 7.4
Excerpt: Hydrolytic stability of C8 substituted imidazotetrazines.

U87 cells = test: Cell viability, Alamar Blue, 7 days, U87; assay type: cell-based; conditions: Homo sapiens, U-87 MG, 168 h, Table 1a, MGMT −
Excerpt: Cell Culture and Reagents.

Row | SMILES | activity relative to TMZ in MGMT-deficient cell lines [1] | anticancer activity in cell culture [1] | stability to mouse liver microsomes [2] | Fold Change between (+/−) O6BG IC50 (T98G cells) | further results
1 | Cn1nnc2c(Cl)ncn2c1=O [Compound 19, 8-chloro-3-methylimidazo[5,1-d][1,2,3,5]tetrazin-4(3H)-one] | as (or more) potent than TMZ | retained activity in culture | generally stable to oxidative metabolism |  | 
2 | Cn1nnc2c(C(N)=O)ncn2c1=O [TMZ, temozolomide, reference compound] |  |  | insensitive to metabolic perturbation |  | IC50 ([1]; GBM cell lines with negligible MGMT expression, read-out: IC50 in cell lines with negligible MGMT expression): ≤ 50 µM; IC50 ([1]; GBM cell lines with significant MGMT expression, read-out: IC50 in cell lines with significant MGMT expression): > 300 µM; myelosuppression / WBC toxicity [3]: white blood cell (WBC) depletion; incidence of myelotoxicity ([4]; TMZ-treated patients): ~20%; half-life ([4]; in vivo, in humans (b7: also in aqueous solutions in vitro)): ~2 h
3 | CCSC(=O)c1ncn2c(=O)n(C)nnc12 [Compound 10, S-ethyl 3-methyl-4-oxo-3,4-dihydroimidazo[5,1-d][1,2,3,5]tetrazine-8-carbothioate] | activity comparable to TMZ |  |  |  | 
4 | CNC(=O)c1ncn2c(=O)n(C)nnc12 [Compound 4, N,3-dimethyl-4-oxo-3,4-dihydroimidazo[5,1-d][1,2,3,5]tetrazine-8-carboxamide] |  | retained activity in culture | some susceptibility to the effects of the microsomes |  | increase of median survival over TMZ ([5]; oral): 24%
5 | CN(C)C(=O)c1ncn2c(=O)n(C)nnc12 [Compound 5, N,N,3-trimethyl-4-oxo-3,4-dihydroimidazo[5,1-d][1,2,3,5]tetrazine-8-carboxamide] |  | retained activity in culture | some susceptibility to the effects of the microsomes | 10 | increase of median survival over TMZ ([5]; oral): 46%
6 | Cn1nnc2c(-c3ccccc3)ncn2c1=O [Compound 23, 3-methyl-8-phenylimidazo[5,1-d][1,2,3,5]tetrazin-4(3H)-one] | as (or more) potent than TMZ | most active across all cell lines |  |  | half-life [6]: > 20 h
7 | Cc1ncn2c(=O)n(C)nnc12 [Compound 14, 3,8-dimethylimidazo[5,1-d][1,2,3,5]tetrazin-4(3H)-one] | as (or more) potent than TMZ | most active across all cell lines |  |  | half-life [6]: > 20 h; effect on survival in intracranial model ([5]; oral, 15 mg/kg TMZ or equimolar dose, 15 mg/kg): lack of in vivo efficacy
8 | Cc1cnc(-c2ncn3c(=O)n(C)nnc23)o1 [Compound 27, 3-methyl-8-(5-methyloxazol-2-yl)imidazo[5,1-d][1,2,3,5]tetrazin-4(3H)-one] | as (or more) potent than TMZ | retained activity in culture |  | 20 | 
9 | CCCCN(CCCC)C(=O)c1ncn2c(=O)n(C)nnc12 [Compound 7, N,N-dibutyl-3-methyl-4-oxo-3,4-dihydroimidazo[5,1-d][1,2,3,5]tetrazine-8-carboxamide] |  |  | markedly less stability in liver microsomes |  | Stability (2 h, Microsomes) ([2]; 2 h, percentage remaining relative to t0): 1 ± 1%
10 | CC(=O)c1ncn2c(=O)n(C)nnc12 [Compound 17, 8-acetyl-3-methylimidazo[5,1-d][1,2,3,5]tetrazin-4(3H)-one] | effective against MGMT-deficient cell lines | retained activity in culture | generally stable to oxidative metabolism | 8 | IC50 (U87 cells): 44 ± 6 µM; potency compared to TMZ ([1]; in culture, despite shorter aqueous half-life): equipotent to TMZ; myelosuppression / WBC toxicity ([3]; listed as K-TMZ, 125 mg/kg): did not produce myelosuppression; also recorded: significantly less in vivo toxicity to WBCs; extension of median survival past TMZ-treated mice ([5]; oral gavage, 14.9 mg/kg once-per-day for 5 total doses): more than 50 days
